Values quoted from earlier work, collected in patent publication US20020187120A1, “Method for treating gout and reducing serum uric acid” (GelTex Pharmaceutical, Inc., priority 2001, published 2002).

Settings: administered orally

Compound: COc1cc2c(c(OC)c1OC)-c1ccc(OC)c(=O)cc1[C@@H](NC(C)=O)CC2 [colchicine]
- people who cannot tolerate the drug because of side effects: 80%
